This note sets out measurements from patent publication US20260070919A1, “CRYSTAL FORM OF FIVE-MEMBERED AND SIX-MEMBERED HETEROCYCLIC COMPOUND, PREPARATION METHOD THEREFOR, AND USE THEREOF” (BEIJING MAXINOVEL PHARMACEUTICALS CO., LTD., priority 2022, published 2026).

Holding throughout (assay type): physicochemical
The nature of data set [1]: Dynamic vapor sorption (DVS). As to conditions: for weight gain from 0% RH to 95% RH (moisture absorption): 25° C., weight percentage. On the procedure: A sample of crystal form I of the compound represented by formula 1 (10 mg) was weighed, and dried for 60 minutes at a temperature of 25° C. and a humidity of 0% RH. The moisture absorption characteristics of the sample were tested as the humidity changed from 0% RH to 95% RH, and the desorption characteristics of the sample were tested as the humidity changed from 95% RH to 0% RH. The humidity change in each step was 5% RH, with an equilibrium criterion of a weight change rate of less than 0.01%/min within 5 minutes and a maximum equilibration time of 2 hours.
A sample of crystal form II of the compound represented by formula 1 (10 mg) was weighed, and dried for 60 minutes at a temperature of 25° C. and a humidity of 0% RH. The moisture absorption characteristics of the sample were tested as the humidity changed from 0% RH to 95% RH, and the desorption characteristics of the sample were tested as the humidity changed from 95% RH to 0% RH. The humidity change in each step was 5% RH, with an equilibrium criterion of a weight change rate of less than 0.01%/min within 5 minutes and a maximum equilibration time of 2 hours.
A sample of crystal form III of the compound represented by formula 1 (10 mg) was weighed, and dried for 60 minutes at a temperature of 25° C. and a humidity of 0% RH. The moisture absorption characteristics of the sample were tested as the humidity changed from 0% RH to 95% RH, and the desorption characteristics of the sample were tested as the humidity changed from 95% RH to 0% RH. The humidity change in each step was 5% RH, with an equilibrium criterion of a weight change rate of less than 0.01%/min within 5 minutes and a maximum equilibration time of 2 hours.

A short description of data set [2]: Stability test (influencing factors and accelerated conditions; HPLC, appearance, XRPD, DSC). On the procedure:
Appropriate amounts of crystal form II and crystal form III of the compound represented by formula 1 were accurately weighed into 20 mL colorless transparent glass vials, which were placed under corresponding influencing factors (high temperature at 60° C., high humidity of 92.5% RH) and accelerated conditions (40° C./75% RH) respectively. After 1 week and 2 weeks, the samples were removed for HPLC analysis to determine the content and related substances, thereby evaluating the chemical stability of crystal form II and crystal form III. The samples were also characterized by appearance, XRPD, and DSC to assess the physical stability of the two crystal forms. Additionally, samples of crystal form II and crystal form III were accurately weighed into 20 mL colorless transparent glass vials, which were tightly sealed and stored in a −20° C. freezer as standard samples for HPLC analysis.

Data set [3] can be described thus: XRPD re-characterization of the precipitated sample after days. On the procedure: 20 mg of the compound represented by formula 1 was weighed into a glass vial, which was placed in a 50° C. water bath with a rotational speed of 400 rpm. 90 times the volume of ethyl acetate as good solvent was added to the vial, and the mixture was heated to obtain a clarified solution, which was maintained at the same temperature for 15 minutes. 70 times the volume of n-heptane as anti-solvent was slowly added dropwise thereto under stirring to precipitate a solid, and the mixture was stirred for another 10 minutes. A sample was taken and centrifuged, naturally dried, and characterized by XRPD as crystal form II.
Following the same operational procedure as in method 3, crystal form II was also obtained by using the good solvent and anti-solvent listed in the table below.
Method: An appropriate amount of sample was taken and spread evenly on a single-crystal silicon wafer, and XRPD testing was conducted at room temperature. The specific experimental parameters were as follows: the light source was CuKα, the X-ray intensity was 40 kV/40 mA, the scanning mode was Theta-theta, the scanning angle range was 4° to 40°, the step size was 0.05°, and the scanning speed was 0.5 seconds per step.

Where [4] appears, read: after 2 weeks under −20° C., high temperature, high humidity, light, and accelerated conditions.

For the compound `CCS(=O)(=O)N1CC(CC#N)(n2cc(-c3nc(Nc4cnn(C)c4)nc4ccsc34)cn2)C1` [Crystal form I], the “weight gain from 0% RH to 95% RH (moisture absorption)” value (from here on “weight gain from 0% RH to 95% RH”) in data set [1] amounted to 3.025%.

For `CCS(=O)(=O)N1CC(CC#N)(n2cc(-c3nc(Nc4cnn(C)c4)nc4ccsc34)cn2)C1` [Crystal form III], the Appearance entry in data set [2] (Accelerated (40° C./75%)) is listed as “Bright yellow”; in data set [2] (High humidity (92.5% RH)), “Bright yellow”; in data set [2] (High temperature (60° C.)) it was “Bright yellow”; in data set [2] (control group, −20° C.), “Bright yellow”. The chemical stability result in data set [2] (setting [4]) was “good chemical stability”. Moreover, the “physical stability (crystal form conversion)” value in data set [2] (setting [4]) is reported as “partial conversion of crystal form III to crystal form II”. The “weight gain from 0% RH to 95% RH” value in data set [1] was found to be 0.4084%.

As for `CCS(=O)(=O)N1CC(CC#N)(n2cc(-c3nc(Nc4cnn(C)c4)nc4ccsc34)cn2)C1` [Crystal form II], the Appearance result in data set [2] (Accelerated (40° C./75%)) is “Yellow”; in data set [2] (High humidity (92.5% RH)), “Yellow”; in data set [2] (High temperature (60° C.)), “Yellow”; in data set [2] (control group, −20° C.) it was “Yellow”. Besides, the physicochemical stability entry in data set [2] (−20° C., high temperature, high humidity, and accelerated conditions) is “good physicochemical stability”. The “crystal form by XRPD after standing” value is on record as “remained as crystal form II” in data set [3] (after 6 days, good solvent / methyl tert-butyl ether) and “remained as crystal form II” in data set [3] (after 8 days, ethyl acetate / n-heptane). Further, the “hygroscopicity (in words)” value in data set [1] (0% RH to 95% RH) is listed as “almost no hygroscopicity”. Further, in data set [1], the “weight gain from 0% RH to 95% RH” value came out at 0.1047%.
